Reference: US9730929B2, “Substituted aminoimidazopyridazines” (BAYER INTELLECTUAL PROPERTY GMBH, priority 2011, dated 2017)

These compounds were tested against T1, human full-length MKNK1 (Homo sapiens (Human), UniProt Q9BUB5, T344D) (assay: MKNK1 kinase high ATP assay (TR-FRET, 2 mM ATP)). Conditions: ATP final conc. 2 mM; 15 min preincubation.
Type: biochemical
Description: MKNK1-inhibitory activity at high ATP of compounds of the present invention after their preincubation with MKNK1 was quantified employing the TR-FRET-based MKNK1 high ATP assay as described in the following paragraphs.
As substrate for the kinase reaction the biotinylated peptide biotin-Ahx-[…] (C-terminus in amide form) was used, which can be purchased e.g. from the company Biosyntan (Berlin-Buch, Germany).
(§1) For the assay 50 nL of a 100 fold concentrated solution of the test compound in DMSO was pipetted into a black low volume 384 well microtiter plate (Greiner Bio-One, Frickenhausen, Germany), 2 μL of a solution of MKNK1 in aqueous assay buffer [50 mM HEPES pH 7.5, 5 mM magnesium chloride, 1.0 mM dithiothreitol, 0.005% (v/v) Nonidet-P40 (Sigma)] was added and the mixture was incubated for 15 min at 22° C. to allow pre-binding of the test compounds to the enzyme before the start of the kinase reaction. Then the kinase reaction was started by the addition of 3 μL of a solution of adenosine-tri-phosphate (ATP, 3.3 mM=>final conc. in the 5 μL assay volume is 2 mM) and substrate (0.1 μM=>final conc. in the 5 μL assay volume is 0.06 μM) in assay buffer and the resulting mixture was incubated for a reaction time of 30 min at 22° C. The concentration of MKNK1 was adjusted depending of the activity of the enzyme lot and was chosen appropriate to have the assay in the linear range, typical concentrations were in the range of 0.003 μg/mL. The reaction was stopped by the addition of 5 μL of a solution of TR-FRET detection reagents (5 nM streptavidine-XL665 [Cisbio Bioassays, Codolet, France] and 1 nM anti-ribosomal protein S6 (pSer236)-antibody from Invitrogen [#44921G] and 1 nM LANCE EU-W1024 labeled ProteinG [Perkin-Elmer, product no. 4D0071]) in an aqueous EDTA-solution (100 mM EDTA, 0.1% (w/v) bovine serum albumin in 50 mM HEPES pH 7.5).
The resulting mixture was incubated for 1 h at 22° C. to allow the formation of complex between the phosphorylated biotinylated peptide and the detection reagents. Subsequently the amount of phosphorylated substrate was evaluated by measurement of the resonance energy transfer from the Eu-chelate to the streptavidine-XL.

T1 sequence (Q9BUB5 other isoform, or with tags, fused parts or gaps T344D): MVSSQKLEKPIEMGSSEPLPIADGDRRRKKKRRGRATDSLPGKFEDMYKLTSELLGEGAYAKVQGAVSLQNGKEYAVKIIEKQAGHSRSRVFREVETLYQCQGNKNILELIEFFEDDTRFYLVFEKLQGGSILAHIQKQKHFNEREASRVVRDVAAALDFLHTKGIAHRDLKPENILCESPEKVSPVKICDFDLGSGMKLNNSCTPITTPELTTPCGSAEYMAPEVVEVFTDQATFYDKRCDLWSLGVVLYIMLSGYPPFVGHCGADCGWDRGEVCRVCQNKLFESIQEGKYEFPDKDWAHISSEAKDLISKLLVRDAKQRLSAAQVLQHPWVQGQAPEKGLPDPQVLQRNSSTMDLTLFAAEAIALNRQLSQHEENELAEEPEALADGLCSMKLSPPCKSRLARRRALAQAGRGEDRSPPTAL

**Q.** With CN(CC(O)c1ccccc1)c1ccc2ncc(-c3cc4ccccc4o3)n2n1 (single isomer, unassigned; (+)) [Example 13, (+)-2-{[3-(1-Benzofuran-2-yl)imidazo[1,2-b]pyridazin-6-yl](methyl)amino}-1-phenylethanol] as the compound, how does the IC50 read?
**A.** Its IC50 is 24 nM.

**Q.** Which IC50 does the source give for CN(CC(O)c1ccccc1)c1ccc2ncc(-c3cc4ccccc4o3)n2n1 (single isomer, unassigned; (-)) [Example 12, (−)-2-{[3-(1-Benzofuran-2-yl)imidazo[1,2-b]pyridazin-6-yl](methyl)amino}-1-phenylethanol] here?
**A.** Its IC50 is 4 nM.

**Q.** Which IC50 does the source give for CCN(CCO)c1ccc2ncc(-c3cc4ccccc4o3)n2n1 [Example 1] here?
**A.** The IC50 was 20 nM.

**Q.** COc1cccc2oc(-c3cnc4ccc(N(C)C[C@H](O)c5cccc(O)c5)nn34)cc12 [Example 9, 3-[(1R)-1-Hydroxy-2-{[3-(4-methoxy-1-benzofuran-2-yl)imidazo[1,2-b]pyridazin-6-yl](methyl)amino}eth-yl]phenol] was tested. Which IC50 did it give?
**A.** Its IC50 is 4 nM.

**Q.** Which IC50 does the source give for CN(CC(O)c1ccccc1)c1ccc2ncc(-c3cc4ccccc4o3)n2n1 (stereo not shown) [Example 10, 2-{[3-(1-Benzofuran-2-yl)imidazo[1,2-b]pyridazin-6-yl](methyl)amino}-1-phenylethanol] here?
**A.** Its IC50 is 4 nM.

**Q.** For CN(CC(O)c1cccnc1)c1ccc2ncc(-c3cc4ccccc4o3)n2n1 (stereo not shown) [Example 11, 2-{[3-(1-Benzofuran-2-yl)imidazo[1,2-b]pyridazin-6-yl](methyl)amino}-1-(pyridin-3-yl)ethanol], which IC50 is on record?
**A.** The IC50 was 2 nM.

**Q.** Which IC50 does the source give for CC(O)CN(C)c1ccc2ncc(-c3cc4ccccc4o3)n2n1 (stereo not shown) [Example 14, 1-{[3-(1-Benzofuran-2-yl)imidazo[1,2-b]pyridazin-6-yl](methyl)amino}propan-2-ol] here?
**A.** The IC50 was 9 nM.

**Q.** With COc1nccc2oc(-c3cnc4ccc(N(C)CC(C)O)nn34)cc12 (stereo not shown) [Example 15, 1-{[3-(4-Methoxyfuro[3,2-c]pyridin-2-yl)imidazo[1,2-b]pyridazin-6-yl](methyl)amino}propan-2-ol] as the compound, how does the IC50 read?
**A.** Its IC50 is 10 nM.

**Q.** With OC(CN(c1ccc2ncc(-c3cc4ccccc4o3)n2n1)C1CC1)c1ccccc1 (stereo not shown) [Example 16, 2-{[3-(1-Benzofuran-2-yl)imidazo[1,2-b]pyridazin-6-yl](cyclopropyl)amino}-1-phenylethanol] as the compound, how does the IC50 read?
**A.** Its IC50 is 24 nM.

**Q.** With COc1nccc2oc(-c3cnc4ccc(N(C)C(C)CO)nn34)cc12 (stereo not shown) [Example 17, 2-{[3-(4-Methoxyfuro[3,2-c]pyridin-2-yl)imidazo[1,2-b]pyridazin-6-yl](methyl)amino}propan-1-ol] as the compound, how does the IC50 read?
**A.** The IC50 was 26 nM.

**Q.** With OC(CN(c1ccc2ncc(-c3cc4ccccc4o3)n2n1)C1CC1)c1ccc(F)cc1 (stereo not shown) [Example 18, 2-{[3-(1-Benzofuran-2-yl)imidazo[1,2-b]pyridazin-6-yl](cyclopropyl)amino}-1-(4-fluorophenyl)ethanol] as the compound, how does the IC50 read?
**A.** Its IC50 is 42 nM.

**Q.** How did the IC50 turn out when CC(CO)N(C)c1ccc2ncc(-c3cc4ccccc4o3)n2n1 (stereo not shown) [Example 19, 2-{[3-(1-Benzofuran-2-yl)imidazo[1,2-b]pyridazin-6-yl](methyl)amino}propan-1-ol] was run?
**A.** Its IC50 is 47 nM.

**Q.** For CC(C)CN(CC(O)c1ccccc1)c1ccc2ncc(-c3cc4ccccc4o3)n2n1 (stereo not shown) [Example 20, 2-{[3-(1-Benzofuran-2-yl)imidazo[1,2-b]pyridazin-6-yl](isobutyl)amino}-1-phenylethanol], which IC50 is on record?
**A.** The IC50 was 48 nM.

**Q.** For CC(C)N(CC(O)c1ccccc1)c1ccc2ncc(-c3cc4ccccc4o3)n2n1 (stereo not shown) [Example 21, 2-{[3-(1-Benzofuran-2-yl)imidazo[1,2-b]pyridazin-6-yl](isopropyl)amino}-1-phenylethanol], which IC50 is on record?
**A.** Its IC50 is 52 nM.

**Q.** With CN(CC(O)c1ccccc1)c1ccc2ncc(-c3cc4ccncc4o3)n2n1 (stereo not shown) [Example 22, 2-{[3-(Furo[2,3-c]pyridin-2-yl)imidazo[1,2-b]pyridazin-6-yl](methyl)amino}-1-phenylethanol] as the compound, how does the IC50 read?
**A.** Its IC50 is 1 nM.

**Q.** CN(CC(O)c1ccccc1)c1ccc2ncc(-c3cc4cnccc4o3)n2n1 (stereo not shown) [Example 23, 2-{[3-(Furo[3,2-c]pyridin-2-yl)imidazo[1,2-b]pyridazin-6-yl](methyl)amino}-1-phenylethanol] was tested. Which IC50 did it give?
**A.** Its IC50 is 1 nM.

**Q.** How did the IC50 turn out when COc1nccc2oc(-c3cnc4ccc(N(C)CC(O)c5ccccc5)nn34)cc12 (stereo not shown) [Example 24, 2-{[3-(4-Methoxyfuro[3,2-c]pyridin-2-yl)imidazo[1,2-b]pyridazin-6-yl](methyl)amino}-1-phenylethanol] was run?
**A.** Its IC50 is 3 nM.

**Q.** With CCOc1nccc2oc(-c3cnc4ccc(N(C)CC(O)c5ccccc5)nn34)cc12 (stereo not shown) [Example 25, 2-{[3-(4-Ethoxyfuro[3,2-c]pyridin-2-yl)imidazo[1,2-b]pyridazin-6-yl](methyl)amino}-1-phenylethanol] as the compound, how does the IC50 read?
**A.** The IC50 was 5 nM.

The compounds below were run against T1, human full-length MKNK1 (assay: MKNK1 kinase assay (TR-FRET, 10 μM ATP)). Conditions: ATP final conc. 10 μM; 15 min preincubation.
Type: biochemical
Description: MKNK1-inhibitory activity of compounds of the present invention was quantified employing the MKNK1 TR-FRET assay as described in the following paragraphs.
As substrate for the kinase reaction the biotinylated peptide biotin-Ahx-[…] (C-terminus in amide form) was used which can be purchased e.g. form the company Biosyntan (Berlin-Buch, Germany).
as §1, with “16.7 μM=>final” for “3.3 mM=>final”, “10 μM)” for “2 mM)”, “45” for “30”, “0.05 μg/ml.” for “0.003 μg/mL.”, “[…]” for “S6”, “AD0071])” for “4D0071])”
The resulting mixture was incubated for 1 h at 22° C. to allow the formation of complex between the phosphorylated biotinylated peptide and the detection reagents. Subsequently the amount of phosphorylated substrate was evaluated by measurement of the resonance energy transfer from the Eu-chelate to the streptavidine-XL. Therefore, the fluorescence emissions at 620 nm and 665 nm after excitation at 350 nm were measured in a TR-FRET reader, e.g. a Rubystar (BMG Labtechnologies, Offenburg, Germany) or a Viewlux (Perkin-Elmer). The ratio of the emissions at 665 nm and at 622 nm was taken as the measure for the amount of phosphorylated substrate.

**Q.** CCN(CCO)c1ccc2ncc(-c3cc4ccccc4o3)n2n1 [Example 1] was tested. Which IC50 did it give?
**A.** The IC50 was 7 nM.

**Q.** Which IC50 does the source give for CN(C[C@H](O)c1cccc(O)c1)c1ccc2ncc(-c3cc4ccccc4o3)n2n1 [Example 3] here?
**A.** The IC50 was 1 nM.

**Q.** For COc1cccc2oc(-c3cnc4ccc(N(C)C[C@H](O)c5cccc(O)c5)nn34)cc12 [Example 9, 3-[(1R)-1-Hydroxy-2-{[3-(4-methoxy-1-benzofuran-2-yl)imidazo[1,2-b]pyridazin-6-yl](methyl)amino}eth-yl]phenol], which IC50 is on record?
**A.** Its IC50 is 2 nM.

**Q.** With CN(CC(O)c1ccccc1)c1ccc2ncc(-c3cc4ccccc4o3)n2n1 (stereo not shown) [Example 10, 2-{[3-(1-Benzofuran-2-yl)imidazo[1,2-b]pyridazin-6-yl](methyl)amino}-1-phenylethanol] as the compound, how does the IC50 read?
**A.** The IC50 was 3 nM.
